In patent US4959460A, “3'-deamino-3'-(2"-substituted-4"-morpholino)-anthracycline compounds” (priority 1988, dated 1990):
≈ marks a conversion by molar mass, not a printed value.

Assays:
[1] = system: P388 mouse leukemia cells; assay: Anti-proliferative activity against cultivated P388 mouse leukemia cells; assay type: cell-based; settings: P388 cells 5×10^4 cells/ml, RPMI 1640, 10% fetal bovine serum, 37° C., read-out: 50% proliferation-inhibitory concentration (IC50)
Description: (1) Anti-proliferative activity against cultivated P388 mouse leukemia cells:
More specifically, a medium RPMI 1640 (Rosewell Park Memorial Institute medium 1640) containing a given amount of the 3'-deamino-3'-(2"-substituted-4"-morpholino) anthracycline compound and 10% fetal bovine serum was inoculated with cultivated P388 5×10^4 cells/ml. Incubation was carried out at 37° C. in a CO2 incubator, and the number of the cells in each medium was then counted to determine 50% proliferation-inhibitory concentration (IC50, ng/ml) relative to the control (no test compounds added).

P388 leukemia = assay: Antitumor activity against P388 leukemia intraperitoneally transplanted into CDF2 mice; assay type: in vivo; settings: for T/C: control = 100
Description: The effects of the test anthracycline compounds are shown below in terms of T/C (%), the survival days of the control mice to which physiological saline solutions was administered being specified as 100.

[2] = 0.125 mg/kg i.v., day 1 and day 5
[3] = 0.25 mg/kg i.v., day 1 and day 5
[4] = 0.5 mg/kg i.v., day 1 and day 5
[5] = 1 mg/kg i.v., administered only day 1
[6] = 2 mg/kg i.v., administered only day 1
[7] = 4 mg/kg i.v., administered only day 1
[8] = 16 mg/kg i.v., administered only day 1
[9] = 0.29 mg/kg i.v., day 1 and day 5
[10] = 0.44 mg/kg i.v., day 1 and day 5
[11] = 0.66 mg/kg i.v., day 1 and day 5
[12] = 0.99 mg/kg i.v., day 1 and day 5
[13] = 1.48 mg/kg i.v., day 1 and day 5
[14] = 2.22 mg/kg i.v., day 1 and day 5
[15] = 3.33 mg/kg i.v., day 1 and day 5
[16] = 5.00 mg/kg i.v., day 1 and day 5

## CC[C@@]1(O)C[C@H](O[C@H]2C[C@H](N3CCO[C@H](OC)C3)[C@H](O)[C@H](C)O2)c2c(O)c3c(c(O)c2[C@H]1O)C(=O)c1cccc(O)c1C3=O [3'-Deamino-3'-[(2"S)-2"-methoxy-4"-morpholino]-13-deoxo-10-hydroxycarminomycin]
[1]
  IC50: 0.018 µg/mL (≈ 0.0292 µM)
P388 leukemia; [2]
  Number of cured mice/Number of test mice: 0/6
  T/C: 103%
P388 leukemia; [3]
  Number of cured mice/Number of test mice: 0/6
  T/C: 182%
P388 leukemia; [4]
  Number of cured mice/Number of test mice: 0/6
  T/C: 196%
P388 leukemia; [5]
  Number of cured mice/Number of test mice: 0/6
  T/C: 182%

## CC[C@@]1(O)C[C@H](O[C@H]2C[C@H](N3CCO[C@@H](OC)C3)[C@H](O)[C@H](C)O2)c2c(O)c3c(c(O)c2[C@H]1O)C(=O)c1cccc(O)c1C3=O [3'-Deamino-3'-[(2"R)-2"-methoxy-4"-morpholino]-13-deoxo-10-hydroxycarminomycin]
[1]
  IC50: 0.009 µg/mL (≈ 0.0146 µM)
P388 leukemia; [2]
  Number of cured mice/Number of test mice: 0/6
  T/C: 119%
P388 leukemia; [3]
  Number of cured mice/Number of test mice: 0/6
  T/C: 149%
P388 leukemia; [4]
  Number of cured mice/Number of test mice: 0/6
  T/C: 172%
P388 leukemia; 1 mg/kg i.v., day 1 and day 5
  Number of cured mice/Number of test mice: 0/6
  T/C: 181%
P388 leukemia; [6]
  Number of cured mice/Number of test mice: 0/6
  T/C: 36%

## CC[C@@]1(O)C[C@H](O[C@H]2C[C@H](N3CCO[C@@H](NC(=O)C(F)(F)F)C3)[C@H](O)[C@H](C)O2)c2c(O)c3c(c(O)c2[C@H]1O)C(=O)c1cccc(O)c1C3=O [3'-Deamino-3'-[(2"R)-2"-trifluoroacetamido-4"-morpholino]-13-deoxo-10-hydroxycarminomycin]
[1]
  IC50: 0.0225 µg/mL (≈ 0.0323 µM)
P388 leukemia; 2 mg/kg i.v., day 1 and day 5
  Number of cured mice/Number of test mice: 0/6
  T/C: 120%
P388 leukemia; 4 mg/kg i.v., day 1 and day 5
  Number of cured mice/Number of test mice: 0/6
  T/C: 150%
P388 leukemia; 8 mg/kg i.v., day 1 and day 5
  Number of cured mice/Number of test mice: 0/6
  T/C: 165%
P388 leukemia; 16 mg/kg i.v., day 1 and day 5
  Number of cured mice/Number of test mice: 2/6
  T/C: 319%

## CC[C@@]1(O)C[C@H](O[C@H]2C[C@H](N3CCO[C@H](NC(C)=O)C3)[C@H](O)[C@H](C)O2)c2c(O)c3c(c(O)c2[C@H]1O)C(=O)c1cccc(O)c1C3=O [3'-Deamino-3'-[(2"S)-2"-acetamido-4"-morpholino]-13-deoxo-10-hydroxycarminomycin]
[1]
  IC50: 0.083 µg/mL (≈ 0.129 µM)
P388 leukemia; 2 mg/kg i.v., day 1 and day 5
  Number of cured mice/Number of test mice: 0/6
  T/C: 124%
P388 leukemia; 4 mg/kg i.v., day 1 and day 5
  Number of cured mice/Number of test mice: 0/6
  T/C: 124%
P388 leukemia; 8 mg/kg i.v., day 1 and day 5
  Number of cured mice/Number of test mice: 0/6
  T/C: 146%
P388 leukemia; 16 mg/kg i.v., day 1 and day 5
  Number of cured mice/Number of test mice: 0/6
  T/C: 340%

## CC[C@@]1(O)C[C@H](O[C@H]2C[C@H](N3CCO[C@H](N=[N+]=[N-])C3)[C@H](O)[C@H](C)O2)c2c(O)c3c(c(O)c2[C@H]1O)C(=O)c1cccc(O)c1C3=O [3'-Deamino-3'-[(2"S)-2"-azido-4"-morpholino]-13-deoxo-10-hydroxycarminomycin]
[1]
  IC50: 0.024 µg/mL (≈ 0.0383 µM)
P388 leukemia; [4]
  Number of cured mice/Number of test mice: 0/6
  T/C: 122%
P388 leukemia; 1 mg/kg i.v., day 1 and day 5
  Number of cured mice/Number of test mice: 0/6
  T/C: 163%
P388 leukemia; 2 mg/kg i.v., day 1 and day 5
  Number of cured mice/Number of test mice: 0/6
  T/C: 231%
P388 leukemia; [7]
  Number of cured mice/Number of test mice: 1/6
  T/C: 355%

## CC[C@@]1(O)C[C@H](O[C@H]2C[C@H](N3CCO[C@H](NC(=O)C(F)(F)F)C3)[C@H](O)[C@H](C)O2)c2c(O)c3c(c(O)c2[C@H]1O)C(=O)c1cccc(O)c1C3=O [3'-Deamino-3'-[(2"S)-2"-trifluoroacetamido-4"-morpholino]-13-deoxo-10-hydroxycarminomycin]
[1]
  IC50: 0.052 µg/mL (≈ 0.0746 µM)
P388 leukemia; 2 mg/kg i.v., day 1 and day 5
  Number of cured mice/Number of test mice: 0/6
  T/C: 136%
P388 leukemia; 4 mg/kg i.v., day 1 and day 5
  Number of cured mice/Number of test mice: 0/6
  T/C: 181%
P388 leukemia; 8 mg/kg i.v., day 1 and day 5
  Number of cured mice/Number of test mice: 0/6
  T/C: 229%
P388 leukemia; [8]
  Number of cured mice/Number of test mice: 0/6
  T/C: 263%

## CC[C@@]1(O)C[C@H](O[C@H]2C[C@H](N3CCOCC3)[C@H](O)[C@H](C)O2)c2c(O)c3c(c(O)c2[C@H]1O)C(=O)c1cccc(O)c1C3=O [3'Deamino-3'-morpholino-R20X2, reference compound]
P388 leukemia; [9]
  Number of cured mice/Number of test mice: 0/6
  T/C: 110%
P388 leukemia; [10]
  Number of cured mice/Number of test mice: 0/6
  T/C: 143%
P388 leukemia; [11]
  Number of cured mice/Number of test mice: 0/6
  T/C: 162%
P388 leukemia; [12]
  Number of cured mice/Number of test mice: 0/6
  T/C: 173%
P388 leukemia; [13]
  Number of cured mice/Number of test mice: 0/6
  T/C: 189%
P388 leukemia; [14]
  Number of cured mice/Number of test mice: 0/6
  T/C: 189%
P388 leukemia; [15]
  Number of cured mice/Number of test mice: 0/6
  T/C: 240%
P388 leukemia; [16]
  Number of cured mice/Number of test mice: 0/6
  T/C: 135%

## CC[C@@]1(O)C[C@H](O[C@H]2C[C@H](N3CCO[C@@H](N=[N+]=[N-])C3)[C@H](O)[C@H](C)O2)c2c(O)c3c(c(O)c2[C@H]1O)C(=O)c1cccc(O)c1C3=O [3'-Deamino-3'-[(2"R)-2"-azido-4"-morpholino]-13-deoxo-10-hydroxycarminomycin]
[1]
  IC50: 0.0189 µg/mL (≈ 0.0302 µM)
P388 leukemia; [3]
  Number of cured mice/Number of test mice: 0/6
  T/C: 115%
P388 leukemia; [4]
  Number of cured mice/Number of test mice: 0/6
  T/C: 163%
P388 leukemia; 1 mg/kg i.v., day 1 and day 5
  Number of cured mice/Number of test mice: 0/6
  T/C: 196%
P388 leukemia; 2 mg/kg i.v., day 1 and day 5
  Number of cured mice/Number of test mice: 0/6
  T/C: 294%
P388 leukemia; 4 mg/kg i.v., day 1 and day 5
  Number of cured mice/Number of test mice: 0/6
  T/C: 124%

## CC[C@@]1(O)C[C@H](O[C@H]2C[C@H](N3CCO[C@H](CO)C3)[C@H](O)[C@H](C)O2)c2c(O)c3c(c(O)c2[C@H]1O)C(=O)c1cccc(O)c1C3=O [3'-Deamino-3'-[(2"S) -2"-hydroxymethyl-4"-morpholino]-13-deoxo-10-hydroxycarminomycin]
[1]
  IC50: 0.02 µg/mL (≈ 0.0325 µM)

## CC[C@@]1(O)C[C@H](O[C@H]2C[C@H](N3CCO[C@H](C)C3)[C@H](O)[C@H](C)O2)c2c(O)c3c(c(O)c2[C@H]1O)C(=O)c1cccc(O)c1C3=O [3'-Deamino-3'-[(2"R)-2"-methyl-4"-morpholino]-13-deoxo-10-hydroxycarminomycin]
[1]
  IC50: 0.034 µg/mL (≈ 0.0567 µM)

## CC[C@@]1(O)C[C@H](O[C@H]2C[C@H](N3CCO[C@H](CCl)C3)[C@H](O)[C@H](C)O2)c2c(O)c3c(c(O)c2[C@H]1O)C(=O)c1cccc(O)c1C3=O [3'-Deamino-3'-[(2"S)-2"-chloromethyl-4"-morpholino]-13-deoxo-10-hydroxycarminomycin]
[1]
  IC50: 0.036 µg/mL (≈ 0.0568 µM)
